Test results taken from patent publication US20080299140A1, “Immunogenic Composition and Peptide Sequences for Prevention and Treatment of an Hsv Condition” (priority 2002, published 2008).
Numbering of substitutions follows the chain as printed. Read-outs that look alike come from different tables or passages of the source.

Legend:
[1] = target: T1, DP402 DP (α1*0101, α1*0402) (Homo sapiens, UniProt P04440+P20036, A65V/A84D/A85E/L207M); assay: biochemical; assay type: binding
T1 sequence (P20036 29-260): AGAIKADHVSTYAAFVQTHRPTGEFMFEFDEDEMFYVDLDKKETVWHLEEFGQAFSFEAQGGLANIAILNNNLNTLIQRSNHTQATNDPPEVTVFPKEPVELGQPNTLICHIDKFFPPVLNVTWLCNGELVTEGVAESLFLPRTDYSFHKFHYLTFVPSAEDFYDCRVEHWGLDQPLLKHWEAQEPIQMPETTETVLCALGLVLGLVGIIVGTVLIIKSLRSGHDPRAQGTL
T1 sequence (P04440 30-258 A65V/A84D/A85E): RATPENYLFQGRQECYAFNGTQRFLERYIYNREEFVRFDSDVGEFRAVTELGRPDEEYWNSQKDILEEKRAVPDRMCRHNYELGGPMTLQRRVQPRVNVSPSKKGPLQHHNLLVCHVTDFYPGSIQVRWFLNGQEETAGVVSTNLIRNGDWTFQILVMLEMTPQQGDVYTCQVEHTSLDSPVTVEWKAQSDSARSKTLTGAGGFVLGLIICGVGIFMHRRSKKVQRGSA

[2] = target: T2, DP401=HLA-DP(α1*0101,α1*0401) (Homo sapiens, UniProt P04440+P20036); assay: biochemical; assay type: binding
T2 sequence (P20036 32-260 limits assumed): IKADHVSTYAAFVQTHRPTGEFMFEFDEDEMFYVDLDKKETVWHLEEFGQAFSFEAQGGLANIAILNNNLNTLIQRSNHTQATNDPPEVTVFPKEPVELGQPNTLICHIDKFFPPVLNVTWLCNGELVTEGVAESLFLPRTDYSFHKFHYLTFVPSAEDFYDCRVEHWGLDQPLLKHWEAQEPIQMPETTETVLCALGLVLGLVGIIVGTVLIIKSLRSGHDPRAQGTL
T2 sequence (P04440 30-258): T1 sequence (P04440 30-258 A65V/A84D/A85E) with V36A, D55A, E56A

[3] = target: T3, DR15=HLA-DR(α1*0101,α1*1501) (Homo sapiens, UniProt P01903+P01911); assay: HLA-DR specific binding assay, DR15
T3 construct: endogenous in cells; host or cells: EBV homozygous human B cell line

[4] = target: T4, DR7=HLA-DR(α1*0101,α1*0701) (Homo sapiens, UniProt P01903+P01911, A100R/A102G/A103Q/D57E/D86V/E43K/F76Y/K127E/L162R/M171V/P40G/Q125H/Q99D/R33Q/R42Y/R54Q/S133A/S66F/T210M/V115G/Y107V/Y59L/Y89S); assay: HLA-DR specific binding assay, DR7
T4 construct: endogenous in cells; host or cells: EBV homozygous human B cell line

[5] = target: T5, DRB3=HLA-DR(α1*0101,α3*0101) (Homo sapiens, UniProt P01903+P79483); assay: HLA-DR specific binding assay, DRB3 (DR52)
T5 construct: endogenous in cells; host or cells: STEILIN or 0206AD (both typed DRB3*0101)

[6] = target: T6, DR11=HLA-DR(α1*0101,α1*1101) (Homo sapiens, UniProt P01903+P01911, A100R/A169T/A87E/I96F/K41T/L162R/M171V/P40S/Q125H/Q178H/Q39Y/Q99D/R42S/S66Y/T262R/V115G/W38E); assay: biochemical; assay type: binding
T6 construct: endogenous in cells; host or cells: SWEIG (EBV homozygous B cell line)

[7] = target: T7, DRB4=HLA-DR(α1*0101,α4*0101) (Homo sapiens, UniProt P01903+P13762, G164S); assay: HLA-DR specific binding assay, DRB4 (DR53)
T7 construct: endogenous in cells

[8] = target: T8, DR3=HLA-DR(α1*0101,α1*0301) (Homo sapiens, UniProt P01903+P01911, A100K/A102G/A103R/A169T/F55Y/I96L/K41T/L162R/M171V/P40S/Q125H/Q178H/Q39Y/R42S/S66N/T106N/T262R/W38E/Y61H); assay: HLA-DR specific binding assay, DR3
T8 construct: endogenous in cells; host or cells: STEILIN (EBV homozygous B cell line)

[9] = target: T9, DR4=HLA-DR(α1*0101,α1*0401) (Homo sapiens, UniProt P01903+P01911, A100K/A169T/F76Y/I96L/K127E/L162R/M171V/N62H/P40V/Q125Y/R42H/S133A/S149N/S66Y/V115G/V209L/W38E); assay: biochemical; assay type: binding
T9 construct: endogenous in cells; host or cells: BOLETH (EBV homozygous B cell line)

[10] = target: T10, DR1=HLA-DR(α1*0101,α1*0101) (Homo sapiens, UniProt P01903+P01911, A100R/D57E/F55L/F60I/F76Y/I96L/L162R/M171V/P40L/Q125E/R42F/V115G/Y59C); assay: biochemical; assay type: binding
T10 construct: endogenous in cells; host or cells: EBV homozygous human B cell line

[11] = target: T11, DRB5=HLA-DR(α1*0101,α5*0101) (Homo sapiens, UniProt P01903+Q30154); assay: biochemical; assay type: binding; conditions: Table V; […]; read-out: IC50 DRB5
T11 construct: endogenous in cells; host or cells: EBV homozygous human B cell line

[12] = target: T12, DR13=HLA-DR(α1*0101,α1*1301) (Homo sapiens, UniProt P01903+P01911, A100E/A169T/K41T/L162R/M171V/P40S/Q125H/Q178H/Q39Y/Q99D/R42S/S66N/T262R/W38E/Y61H); assay: HLA-DR specific binding assay, DR13
T12 construct: endogenous in cells; host or cells: 0206AD (EBV homozygous B cell line)

[13] = test system: HLA-DR and HLA-DP molecules; assay: MHC class II binding assays, panel of twelve HLA class II molecules (number of alleles bound); conditions: number of the twelve class II MHC alleles bound; title: Threshold 600 nM/5 alleles
[14] = Table V, […], read-out: IC50 DR11
[15] = IC50, DR3, Class II MHC allele DR3
[16] = Table V, […], read-out: IC50 DR4
[17] = […], Class II MHC allele DR1, read-out: IC50, DR1

T5 sequence (P79483 30-266, other chains not shown): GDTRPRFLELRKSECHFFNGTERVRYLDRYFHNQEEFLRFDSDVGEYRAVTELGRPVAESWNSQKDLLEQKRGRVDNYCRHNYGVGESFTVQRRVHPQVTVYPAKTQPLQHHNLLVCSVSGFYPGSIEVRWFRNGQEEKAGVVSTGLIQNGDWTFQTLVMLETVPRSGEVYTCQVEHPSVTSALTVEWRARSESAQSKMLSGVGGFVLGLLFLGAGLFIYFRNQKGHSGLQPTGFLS
T11 sequence (Q30154 30-266, other chains not shown): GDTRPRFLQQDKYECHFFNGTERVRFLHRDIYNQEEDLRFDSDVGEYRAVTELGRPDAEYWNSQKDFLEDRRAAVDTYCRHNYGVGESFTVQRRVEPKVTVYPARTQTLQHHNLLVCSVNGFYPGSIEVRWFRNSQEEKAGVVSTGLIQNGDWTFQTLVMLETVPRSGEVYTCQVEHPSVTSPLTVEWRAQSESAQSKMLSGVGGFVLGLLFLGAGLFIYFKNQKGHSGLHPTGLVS

CSCC[C@H](NC(=O)[C@H](CCCCN)NC(=O)[C@H](CC(C)C)NC(=O)[C@H](CO)NC(=O)[C@H](C)NC(=O)[C@H](CC(=O)O)NC(=O)[C@@H](NC(=O)[C@H](CC(C)C)NC(=O)[C@H](C)NC(=O)[C@H](Cc1ccc(O)cc1)NC(=O)[C@H](CCCCN)NC(=O)[C@@H](N)CO)C(C)C)C(=O)N[C@@H](C)C(=O)N[C@@H](CC(=O)O)C(=O)N1CCC[C@H]1C(=O)N[C@@H](CC(N)=O)C(=O)N[C@@H](CCCNC(=N)N)C(=O)N[C@@H](Cc1ccccc1)C(=O)N[C@@H](CCCNC(=N)N)C(=O)NCC(=O)N[C@@H](CCCCN)C(=O)N[C@@H](CC(=O)O)C(=O)N[C@@H](CC(C)C)C(=O)N1CCC[C@H]1C(=O)N[C@H](C(=O)N[C@@H](CC(C)C)C(=O)N[C@@H](CC(=O)O)C(=O)N[C@@H](CCC(N)=O)C(=O)N[C@@H](CC(C)C)C(=O)O)C(C)C [HSV 30]
IC50 ([1]; Table V, […]): 3.8 µM | IC50 ([2]; Class II MHC allele DP401): 17700 nM | IC50 ([2]; Table V, […]): 17900 nM | IC50 [3]: 11000 nM | IC50 [4]: 374 nM | IC50 ([5]; IC50 DRB3, Table V, […]): 535 nM | IC50 [6, 14]: 648 nM | IC50 [7]: > 100000 nM | IC50 [8, 15]: 79 nM | IC50 ([8]; IC50 DR3, Table V, […]): 78 nM | IC50 [9, 16]: 0.058 µM | IC50 [10, 17]: 58 nM | IC50 [11]: 7 nM | IC50 [12]: > 100 µM

CC[C@H](C)[C@H](NC(=O)[C@H](CCCCN)NC(=O)[C@@H](NC(=O)[C@H](CC(C)C)NC(=O)[C@H](CCCNC(=N)N)NC(=O)[C@H](CC(C)C)NC(=O)[C@H](Cc1ccc(O)cc1)NC(=O)[C@@H](NC(=O)CNC(=O)[C@H](C)NC(=O)[C@@H](NC(=O)[C@H](CCC(=O)O)NC(=O)[C@H](Cc1ccccc1)NC(=O)[C@H](C)NC(=O)[C@@H]1CCCN1C(=O)[C@H](C)NC(=O)[C@H](Cc1c[nH]cn1)NC(=O)[C@H](CCSC)NC(=O)[C@H](CC(C)C)NC(=O)[C@H](Cc1ccccc1)NC(=O)CNC(=O)[C@H](CC(C)C)NC(=O)[C@H](CC(N)=O)NC(=O)[C@H](CC(=O)O)NC(=O)[C@@H](N)CCC(=O)O)[C@@H](C)O)[C@@H](C)O)C(C)C)C(=O)N[C@@H](CC(N)=O)C(=O)N[C@@H](CC(=O)O)C(=O)N[C@@H](Cc1c[nH]c2ccccc12)C(=O)N[C@H](C(=O)N[C@@H](CCC(=O)O)C(=O)N[C@H](C(=O)N[C@H](C(=O)N[C@@H](CCC(N)=O)C(=O)N[C@@H](Cc1ccccc1)C(=O)O)[C@@H](C)O)[C@@H](C)CC)[C@@H](C)O [HSV 34]
IC50 ([1]; Table V, […]): 0.164 µM | IC50 ([2]; Table V, […]): 115 nM | IC50 [3]: 35 nM | IC50 [4]: 316 nM | IC50 ([5]; IC50 DRB3, Table V, […]): 2020 nM | IC50 [6, 14]: 175 nM | IC50 [7]: 743 nM | IC50 ([8]; IC50 DR3, Table V, […]): 10200 nM | IC50 [9, 16]: 0.632 µM | IC50 ([10]; IC50 DR1): 40 nM | IC50 [11]: 85 nM | IC50 [12]: > 100 µM

CC[C@H](C)[C@H](N)C(=O)N[C@H](C(=O)N[C@@H](CCC(N)=O)C(=O)N[C@@H](Cc1ccccc1)C(=O)N[C@H](C(=O)N[C@@H](CC(C)C)C(=O)N[C@@H](CCC(=O)O)C(=O)N[C@@H](Cc1c[nH]cn1)C(=O)N[C@@H](CCCNC(=N)N)C(=O)N[C@@H](C)C(=O)N[C@@H](CCCCN)C(=O)NCC(=O)N[C@@H](CO)C(=O)N[C@@H](CS)C(=O)N[C@@H](CCCCN)C(=O)N[C@@H](Cc1ccc(O)cc1)C(=O)N[C@@H](C)C(=O)N[C@@H](CC(C)C)C(=O)N1CCC[C@H]1C(=O)N[C@@H](CC(C)C)C(=O)N[C@@H](CCCNC(=N)N)C(=O)N[C@H](C(=O)N1CCC[C@H]1C(=O)N1CCC[C@H]1C(=O)N[C@@H](CO)C(=O)N[C@@H](C)C(=O)N[C@@H](CS)C(=O)N[C@@H](CC(C)C)C(=O)N[C@@H](CO)C(=O)N1CCC[C@H]1C(=O)N[C@@H](CCC(N)=O)C(=O)O)[C@@H](C)CC)[C@@H](C)CC)[C@@H](C)O [HSV 38]
Range [13]: 8

CC[C@H](C)[C@H](NC(=O)[C@H](CCCCN)NC(=O)[C@H](CC(C)C)NC(=O)[C@H](CO)NC(=O)[C@H](Cc1ccc(O)cc1)NC(=O)[C@@H](NC(=O)[C@H](C)NC(=O)[C@@H](NC(=O)[C@@H](NC(=O)[C@H](CCCNC(=N)N)NC(=O)[C@@H](N)CCC(N)=O)[C@@H](C)O)C(C)C)C(C)C)C(=O)N[C@@H](C)C(=O)NCC(=O)N[C@@H](Cc1c[nH]c2ccccc12)C(=O)N[C@@H](Cc1c[nH]cn1)C(=O)NCC(=O)N1CCC[C@H]1C(=O)N[C@@H](CCCCN)C(=O)N[C@@H](C)C(=O)N1CCC[C@H]1C(=O)N[C@@H](Cc1ccc(O)cc1)C(=O)N[C@H](C(=O)N[C@@H](CO)C(=O)N[C@H](C(=O)N[C@@H](CC(C)C)C(=O)N[C@@H](CC(C)C)C(=O)N1CCC[C@H]1C(=O)N1CCC[C@H]1C(=O)N[C@@H](CCC(=O)O)C(=O)N[C@@H](CC(C)C)C(=O)O)[C@@H](C)O)[C@@H](C)O [HSV 40]
IC50 ([1]; Class II MHC allele DP402): 7.21 µM | IC50 ([1]; Table V, […]): 7.21 µM | IC50 ([2]; Class II MHC allele DP401): 1360 nM | IC50 ([2]; Table V, […]): 1360 nM | IC50 [3]: 2 nM | IC50 [4]: 20 nM | IC50 ([5]; IC50, DRD3, Class II MHC allele DRD3 (so in the source)): > 100000 nM | IC50 ([5]; IC50 DRB3, Table V, […]): > 100000 nM | IC50 ([6]; Class II MHC allele DR11, read-out: IC50, DR11): 39 nM | IC50 [6, 14]: 39 nM | IC50 [7]: 1160 nM | Range [13]: 4 | IC50 [8, 15]: 2390 nM | IC50 ([8]; IC50 DR3, Table V, […]): 2390 nM | IC50 ([9]; Class II MHC allele DR4, read-out: IC50, DR4): 9.92 µM | IC50 [9, 16]: 9.92 µM | IC50 ([10]; Table V, […], read-out: IC50 DR1): 1160 nM | IC50 [10, 17]: 1160 nM | IC50 [12]: 1.59 µM
